Results reported in US9650427B2, “Modulators of antiviral signaling pathways and therapeutic uses thereof” (priority 2011, dated 2017).

Experiments:
RLR/MAVS pathway = assay: PolyIC-induced IFN expression in polarized T84 cells, quantitative RT-PCR; assay type: cell-based, human; conditions: T84 cells pretreated 1 hour with peptide/inhibitor, then PolyIC for 5 hours; FIG. 2
Description: FIG. 2 includes graphs showing the inhibitory effects of the novel RLR/MAVS signaling inhibitor. The results are from T84 cells that were treated for 1 hr with the inhibitors shown and then treated with PolyIC (PIC) for 5 hours. Cytokine expression was then assessed by qPCR. The y-axis indicates fold induction over untreated cells (UI).
To determine if the MAVS peptide can block RLR signaling in human cells, experiments were performed in the human intestinal epithelial cell (IEC) line T84 comparing the peptide to a previously characterized antennapedia-peptide that targets the TLR adaptor MyD88. These cells were chosen because it is well-known that many viruses penetrate the intestinal epithelium and it has been shown that they respond naturally to both TLR and RLR ligands (FIG. 2 and data not shown). Polarized T84 cells were pretreated for 1 hour with each peptide and then treated for 5 hours with synthetic viral RNA PolyIC, which activates signaling by […]. […] This inhibitory affect was specific, as the IFN expression was unaffected in cells treated with control peptides.

[1] = tested on: antiviral responses in human cells; assay: Blocking of antiviral responses in human cells; assay type: cell-based; conditions: at micromolar concentrations
Excerpt: Accordingly, described herein is a cell-permeable peptide inhibitor of antiviral pathways that operates in every human cell. It consists of the cell penetrating domain of the Drosophila antennapedia protein and amino acids 50-73 of the human MAVS protein. […]. This peptide represents the first described means of blocking antiviral responses in human cells before or at any time after infection by a virus. Moreover, this molecule can serve as a therapeutic to treat inflammatory autoimmune diseases (e.g., those that are caused by inappropriate activation of antiviral responses). No other method currently exists to accomplish these goals.

| Compound | expression of Type I IFN (IFNβ) and Type III IFN IL-29 in response to PolyIC (RLR/MAVS pathway) | antiviral responses (expression of Type I and III interferons and interferon stimulated genes, including viperin) [1] |
| --- | --- | --- |
| CCN(CC)CCCC(C)Nc1ccnc2cc(Cl)ccc12 (stereo not drawn) [chloroquine, reference compound] | neither chloroquine (which blocks TLRs that detect viral RNA) nor inhibitors of the dsRNA dependent kinase PKR, affected | – |
| GNRDTLWHLFNTLQRRPGWVEYFI-RQIKIWFQNRRMKWKK (GNRDTLWHLFNTLQRRPGWVEYFIRQIKIWFQNRRMKWKK) [MAVS peptide, fusion peptide of amino acids 50-73 of MAVS and the cell penetrating domain of the antennapedia protein] | completely abolished | blocks antiviral responses in human cells at micromolar concentrations |
